Data set [1] deals with HCoV-OC43. Nature of the data set: Anti-HCoV-OC43 activity in HCT-8 cells (CPE method). Format: cell-based.
Data set [2] has as its system HCoV-OC43. As to the kind of experiment: Anti-HCoV-OC43 activity in MRC-5 cells (CPE method). Type of data set: cell-based. As to conditions: for IC50: Betacoronavirus 1, OC43, MRC5, 0 h.
Another data set relates to MRC-5 cells. The settings on record: human.
The subject of another data set is HCT-8 cells. As to conditions: human.
Another data set deals with HCoV-229E. As to the kind of experiment: Anti-HCoV-229E activity in Huh7.5 cells (CPE method). Type of data set: cell-based. The settings on record: Human coronavirus 229E.
The test system of data set [3] is Middle East Respiratory Syndrome Coronavirus (MERS-CoV). Format: cell-based. The settings on record: in vitro.
The subject of a further data set is PI3K/Akt/mTOR pathway. Format: cell-based.
In data set [4] the test system is human coronavirus NL63(HCoV-NL63). Format: cell-based.
For a further data set, the system named is human coronavirus HKU1. Type of data set: cell-based.
The next data set concerns 2019-nCoV. As to the kind of experiment: Anti-2019-nCoV activity in Vero E6 cells (CPE). The settings on record: in words.
In data set [5] the test system is coronaviruses (HCoV-229E and HCoV-OC43). As to the kind of experiment: CPE experiment on coronaviruses, single components compared with carrimycin. As to conditions: above CPE method. Type of data set: cell-based.
The subject of data set [6] is severe acute respiratory syndrome coronavirus SARS-CoV. Type of data set: cell-based. As to conditions: in vitro.
Setting [7] is: 0h: administration at the same time of infection, read-out: IC50, First batch.
Where [8] appears, read: 0h: administration at the same time of infection, read-out: IC50, Second batch.
Setting [9] is: 2h: administration 2 hours after infection, read-out: IC50, First batch.
The mark [10] stands for this setting: 2h: administration 2 hours after infection, read-out: IC50, Second batch.

≈ marks a conversion by molar mass, not a printed value. Where two headings read alike, the source gives them in different places.

The record followed here is patent EP4098265A1 (priority 2020, dated 2021).

Regarding `CC[C@H]1OC(=O)[C@H](C)[C@@H](O[C@H]2C[C@@](C)(OC)[C@@H](O)[C@H](C)O2)[C@H](C)[C@@H](O[C@@H]2O[C@H](C)C[C@H](N(C)C)[C@H]2O)[C@](C)(O)C[C@@H](C)CN(C)[C@H](C)[C@@H](O)[C@]1(C)O` [Azithromycin], the IC50 with HCoV-OC43 [1] (Betacoronavirus 1, OC43, HCT-8 cells, 0h administration, read-out: IC50) is greater than 100 µg/mL; in the data set with HCoV-OC43 [2], greater than 11.1 µg/mL; in the data set with HCoV-229E (setting [7]) it was 14.3 µg/mL (≈ 19.1 µM); in the data set with HCoV-229E (setting [8]), 19.2 µg/mL (≈ 25.7 µM); in the data set on HCoV-229E (setting [9]), 14.3 µg/mL (≈ 19.1 µM); in the data set on HCoV-229E (setting [10]) it was 4.77 µg/mL (≈ 6.37 µM). For the same molecule, the “inhibitory effect on the HCoV-OC43” value in the data set with HCoV-OC43 [1] (HCT-8 cells, 0h administration, in words) is “no inhibitory effect”; in the data set on HCoV-OC43 [2] (MRC-5 cells, 0h administration, in words), “no inhibitory effect”. For the same molecule, the TC50 in the data set with MRC-5 cells was 48.07 µg/mL (≈ 64.2 µM); in the data set with HCT-8 cells, greater than 100 µg/mL.
`CO[C@@H]1[C@@H](O[C@@H]2O[C@H](C)[C@@H](O[C@H]3C[C@@](C)(O)[C@@H](OC(=O)CC(C)C)[C@H](C)O3)[C@H](N(C)C)[C@H]2O)[C@@H](CC=O)C[C@@H](C)[C@@H](O[C@H]2CC[C@H](N(C)C)[C@@H](C)O2)/C=C/C=C/C[C@@H](C)OC(=O)C[C@H]1O` [Isovalerylspiramycin I, isovalerylspiramycin I]: the “inhibition activity compared with ribavirin or azithromycin” value (in [3]; in [4]; with human coronavirus HKU1; in [6]) was “higher than the inhibition activity of ribavirin or azithromycin” throughout. The “anti-inflammatory and immunomodulatory effects on PI3K/Akt/mTOR pathway” value in the data set on PI3K/Akt/mTOR pathway is reported as “inhibit the PI3K/Akt/mTOR pathway”. In addition, in the data set on 2019-nCoV, the “anti-2109-nCoV activity in vitro” value is “anti-2109-nCoV activities in vitro”. For the same molecule, in data set [5], the “inhibition activity compared with carrimycin” value was “higher than the inhibition activity of carrimycin”.
For `NC(=O)c1ncn([C@@H]2O[C@H](CO)[C@@H](O)[C@H]2O)n1` [RBV, Ribavirin], the IC50 in the data set with HCoV-OC43 [1] (Betacoronavirus 1, OC43, HCT-8, 0 h) was 11.1 µg/mL (≈ 45.5 µM); in the data set on HCoV-OC43 [2], 63.8 µg/mL (≈ 261 µM); in the data set on HCoV-229E (setting [7]), 6.42 µg/mL (≈ 26.3 µM); in the data set on HCoV-229E (0h: administration at the same time of infection, read-out: IC50, Mean value), 7.06 ± 0.91 µg/mL (≈ 28.9 µM); with HCoV-229E (setting [8]), 7.7 µg/mL (≈ 31.5 µM); in the data set on HCoV-229E (setting [9]), 7.7 µg/mL (≈ 31.5 µM). The IC50 in the data set with HCoV-229E (setting [10]) was determined as 4.77 µg/mL (≈ 19.5 µM). The TC50 with MRC-5 cells and with HCT-8 cells was greater than 100 µg/mL each time.
`CCC(=O)O[C@@H]1CC(=O)O[C@H](C)C/C=C/C=C/[C@H](O[C@H]2CC[C@H](N(C)C)[C@@H](C)O2)[C@H](C)C[C@H](CC=O)[C@H](O[C@@H]2O[C@H](C)[C@@H](O[C@H]3C[C@@](C)(O)[C@@H](OC(=O)CC(C)C)[C@H](C)O3)[C@H](N(C)C)[C@H]2O)[C@H]1OC` [isovalerylspiramycin III]: the “inhibition activity compared with ribavirin or azithromycin” value (in [3]; in data set [4]; in the data set with human coronavirus HKU1; in data set [6]) was “higher than the inhibition activity of ribavirin or azithromycin” throughout. Moreover, the “anti-inflammatory and immunomodulatory effects on PI3K/Akt/mTOR pathway” value in the data set with PI3K/Akt/mTOR pathway is listed as “inhibit the PI3K/Akt/mTOR pathway”. Also, in the data set with 2019-nCoV, the “anti-2109-nCoV activity in vitro” value is on record as “anti-2109-nCoV activities in vitro”. For the same molecule, the “inhibition activity compared with carrimycin” value in [5] is “close to the inhibition activities of carrimycin”.
isovalerylspiramycin II: the “inhibition activity compared with ribavirin or azithromycin” value (in data set [3]; in data set [4]; with human coronavirus HKU1; in data set [6]) was “higher than the inhibition activity of ribavirin or azithromycin” each time. Besides, the “anti-inflammatory and immunomodulatory effects on PI3K/Akt/mTOR pathway” value with PI3K/Akt/mTOR pathway is recorded as “inhibit the PI3K/Akt/mTOR pathway”. For the same molecule, the “anti-2109-nCoV activity in vitro” value with 2019-nCoV was “anti-2109-nCoV activities in vitro”. In addition, the “inhibition activity compared with carrimycin” value in data set [5] was “close to the inhibition activities of carrimycin”.

For orientation: IC50 means the point on the concentration scale where inhibition reaches its midpoint.
